Test results as given in US20240366625A1, “COMPOSITIONS CONTAINING AND THERAPIES USING BEMPEDOIC ACID AND TOLVAPTAN” (Esperion Therapeutics, Inc., priority 2021, published 2024).

How the values were obtained:
[1] = tested on: late onset, slowly developing ADPKD mouse model Pkd1fl/fl;Pax8-rtTA;Tet-On-Cre; experiment: Late onset, slowly developing ADPKD mouse model: kidney weight to body weight; type: in vivo; details: bempedoic acid 30 mg/kg/d mixed with food from P30
Experimental: The example describes characterization of the late onset, slowly developing ADPKD mouse model Pkd1fl/fl;Pax8-rtTA;Tet-On-Cre when treated with bempedoic acid.
Doxycycline was administered intraperitoneally (50 mg/kg/day) on postnatal days 27-29 (P27-P29) and again on P43 and P57 to induce later Pkd1 knockout and slowly progressive PKD in the Cre+ mice. Mice were then sacrificed at […], P60, and P120 for measurements of total kidney weight to body weight ratios.

total KIM-1 = experiment: Immunoblot of kidney lysates, early onset ADPKD mice: KIM-1; type: in vivo, mouse; details: bempedoic acid 30 mg/kg/d; P22
Experimental: (§1) Doxycycline was administered intraperitoneally (50 mg/kg/day) on postnatal days 10 and 11 (P10 and P11) to induce Pkd1 deletion and rapidly progressive PKD in the Cre+ mice. Mice were treated with the various drugs and combinations or vehicle by oral gavage daily from P12-P21 and were then sacrificed at P22 of age to harvest kidneys for histology, weight measurements and blood urea nitrogen (BUN) measurements. Treatments were vehicle, tolvaptan 30 mg/kg/d, tolvaptan 100 mg/kg/d, bempedoic acid 30 mg/kg/d, tolvaptan 30 mg/kg/d+bempedoic acid 30 mg/kg/d, and tolvaptan 100 mg/kg/d+bempedoic acid 30 mg/kg/d; also included was an uninduced, untreated group without PKD. Each treatment group consisted of 3-6 mice.
(§2) At the end of the study, kidney sample lysates were prepared in buffer and separated using SDS-PAGE. Separated proteins were then electrophoretically transferred to membranes. Nonspecific binding was blocked, and membranes were probed with antibodies against phosphorylated (Thr172)-AMPK, phosphorylated P70S6K, phosphorylated ERK, phosphorylated ACLY, total KIM-1, and total neutrophil gelatinase-associated lipocalin (NGAL). Membranes were incubated with appropriate detection antibodies and relative signal intensity determined. Protein levels were normalized to total protein levels. […] These effects of bempedoic acid occurred both alone and in combination with tolvaptan therapy.

phosphorylated P70S6K = experiment: Immunoblot of kidney lysates, early onset ADPKD mice: pP70S6K (mTOR pathway); type: in vivo, mouse; details: bempedoic acid 30 mg/kg/d alone or in combination with tolvaptan; P22
Experimental: as §1, §2

[2] = tested on: phosphorylated (Thr172)-AMPK; experiment: Immunoblot of kidney lysates, early onset ADPKD mice: pAMPK; type: in vivo, mouse; details: bempedoic acid 30 mg/kg/d alone or in combination with tolvaptan; P22
Experimental: as §1, §2

[3] = tested on: proximal tubule (PT)-derived Pkd1−/− kidney epithelial cells; experiment: Cyst growth of PT-derived Pkd1−/− kidney epithelial cells in 3D cultures (Matrigel); type: cell-based, mouse; details: 10 μM forskolin+100 μM IBMX, vs vehicle (DMSO)
Experimental: The example describes cell growth inhibition studies in 3D cultures of kidney epithelial cells using either of ACLY inhibitors bempedoic acid or SB-204990. […] Cells were grown in Matrigel 12 days and treated with 10 μM forskolin+100 μM IBMX for 11 days, and then treated with either vehicle (DMSO; CON), 500 μM metformin, 100 μM ETC-1002 (bempedoic acid) or 30 μM SB-204990 either alone or in combination as shown for the last 3 days (FIG. 2A). […] Error bars indicate 95% confidence interval (CI) (*P<0.05, **P<0.01, ***P<0.001 for the indicated comparisons by one-way ANOVA and Tukey's multiple comparison test) (FIG. 2B).

phosphorylated ACLY = experiment: Immunoblot of kidney lysates, early onset ADPKD mice: pACLY; type: in vivo, mouse; details: bempedoic acid 30 mg/kg/d alone or in combination with tolvaptan; P22
Experimental: as §1, §2

[4] = tested on: total neutrophil gelatinase-associated lipocalin (NGAL); experiment: Immunoblot of kidney lysates, early onset ADPKD mice: NGAL; type: in vivo, mouse; details: P22
Experimental: as §1, §2

pACC = experiment: Immunoblot of liver lysates, early onset ADPKD mice: pACC; type: in vivo, mouse; details: bempedoic acid 30 mg/kg/d; P22
Experimental: as §1
(§3) Liver sample lysates were prepared in buffer and separated using SDS-PAGE. Separated proteins were then electrophoretically transferred to membranes. Nonspecific binding was blocked and membranes were probed with antibodies against pACLY, pThr172AMPKα, PGC1alpha, FATP2, pACC, and cleaved Cas3. Membranes were incubated with appropriate detection antibodies and relative signal intensity determined. Target protein levels were normalized to total protein levels.

FATP2 = experiment: Immunoblot of liver lysates, early onset ADPKD mice: FATP2; type: in vivo, mouse; details: bempedoic acid 30 mg/kg/d alone or in combination with tolvaptan 100 mg/kg/d; P22
Experimental: as §1, §3

pACLY = experiment: Immunoblot of liver lysates, early onset ADPKD mice: pACLY; type: in vivo, mouse; details: bempedoic acid 30 mg/kg/d alone or in combination with tolvaptan 100 mg/kg/d; P22
Experimental: as §1, §3

pThr172AMPKα = experiment: Immunoblot of liver lysates, early onset ADPKD mice: pAMPK; type: in vivo, mouse; details: bempedoic acid 30 mg/kg/d; P22
Experimental: as §1, §3

phosphorylated ERK = experiment: Immunoblot of kidney lysates, early onset ADPKD mice: pERK; type: in vivo, mouse; details: bempedoic acid 30 mg/kg/d alone or in combination with tolvaptan; P22
Experimental: as §1, §2

[5] = tested on: early onset, rapidly developing ADPKD mouse model Pkd1fl/fl;Pax8-rtTA;Tet-O-Cre; experiment: Early onset, rapidly developing ADPKD mouse model: kidney size, kidney weight to body weight, BUN; type: in vivo; details: for BUN: vehicle 107±14; for kidney size (H&E stains of kidney sections) compared to vehicle control: oral gavage daily P12-P21, P22
Experimental: The example describes characterization of the early onset, rapidly developing ADPKD mouse model Pkd1fl/fl;Pax8-rtTA;Tet-O-Cre homozygous in the C57BL/6 background.
as §1

[6] = tested on: inner medullary collecting duct (IMCD)-derived Pkd1−/− kidney epithelial cells; experiment: Cyst growth of IMCD-derived Pkd1−/− kidney epithelial cells in 3D cultures (Matrigel); type: cell-based, mouse; details: 10 μM forskolin+100 μM IBMX
Experimental: ETC-1002 inhibited cyst growth of inner medullary collecting duct (IMCD)-derived Pkd1−/− kidney epithelial cells in 3D cultures. Cells were grown in Matrigel for 6 days and treated with 10 μM forskolin+100 μM IBMX±500 μM metformin and/or 100 μM of ETC-1002 (bempedoic acid) for the last 3 days alone or in combination as shown (FIG. 2C). […] Error bars indicate 95% CI (*P<0.05, **P<0.01, ***P<0.001 for the indicated comparisons by one-way ANOVA and Tukey's multiple comparison test) (FIG. 2D).

CC(C)(CCCCCC(O)CCCCCC(C)(C)C(=O)O)C(=O)O [Bempedoic acid]
total kidney weight to body weight ratio ([1]; P60, male mice): significantly reduced total kidney weight to body weight ratio
total kidney weight to body weight ratio ([1]; P120, male and female mice): a trend that was also observed
reduction of KIM-1 expression (marker of kidney injury), kidney lysate (total KIM-1): > 70%
mTOR signaling pathway (pP70S6K relative to total protein), kidney lysate (phosphorylated P70S6K): inhibited
AMPK activity (pThr172 relative to total protein), kidney lysate [2]: stimulated AMPK
cyst area relative to control ([3]; 100 μM ETC-1002 for the last 3 days): significantly reduced cyst area
ACLY activity (pACLY relative to total protein), kidney lysate (phosphorylated ACLY): reduced ACLY
NGAL signaling pathway (NGAL relative to total protein), kidney lysate ([4]; bempedoic acid 30 mg/kg/d alone or in combination with tolvaptan): inhibited
reduction of NGAL expression compared with reduction of KIM-1 expression, kidney lysate ([4]; bempedoic acid 30 mg/kg/d): to a lesser extent
phosphorylation of AMPK target ACC in liver tissue (pACC): promoted phosphorylation
FATP2 expression relative to total protein, liver lysate (FATP2): increased FATP2 expression
pACLY (activation marker) relative to total protein, liver lysate (pACLY): inhibited pACLY
AMPK activity (pThr172 relative to total protein), liver lysate (pThr172AMPKα): increased AMPK activity
ERK signaling pathway (pERK relative to total protein), kidney lysate (phosphorylated ERK): inhibited
total kidney weight to body weight ratio ([5]; bempedoic acid 30 mg/kg/d oral gavage P12-P21, P22, vehicle 11.9±1.2%): 6.9±0.4%
BUN ([5]; bempedoic acid 30 mg/kg/d oral gavage P12-P21, P22): 59 ± 13 mg/dL
kidney size (H&E stains of kidney sections) compared to vehicle control [5]: marked reduction in kidney size
cyst area relative to control ([6]; 100 μM ETC-1002 alone for the last 3 days): significantly reduced cyst area

O=C(O)C[C@@]1(O)C[C@@H](CCCCCCc2ccc(Cl)cc2Cl)OC1=O [SB-204990]
cyst area relative to control ([3]; 30 μM SB-204990 for the last 3 days): significantly reduced cyst area

CN(C)C(=N)N=C(N)N [metformin]
cyst area relative to control ([3]; 500 μM metformin for the last 3 days): significantly reduced cyst area
cyst area relative to control ([6]; 500 μM metformin alone for the last 3 days): significantly reduced cyst area

Cc1ccccc1C(=O)Nc1ccc(C(=O)N2CCCC(O)c3cc(Cl)ccc32)c(C)c1 (centres unmarked) [tolvaptan, Tolvaptan]
kidney size (H&E stains of kidney sections) compared to vehicle control [5]: marked reduction in kidney size
BUN ([5]; tolvaptan 30 mg/kg/d oral gavage P12-P21, P22): 68 ± 8 mg/dL
total kidney weight to body weight ratio ([5]; tolvaptan 30 mg/kg/d oral gavage P12-P21, P22, vs vehicle): reduced total kidney weight to body weight ratio
total kidney weight to body weight ratio ([5]; tolvaptan 100 mg/kg/d oral gavage P12-P21, P22, vehicle 11.9±1.2%): 7.8±1.0%
BUN ([5]; tolvaptan 100 mg/kg/d oral gavage P12-P21, P22): 35 ± 7 mg/dL
